# Source: ChEMBL document CHEMBL1212701, “Identification of small molecules rescuing fragile X syndrome phenotypes in Drosophila” (2008)
# The source made the active and inactive calls. No cut-off for these calls is given here.
# Experiments:
# Drosophila [1] = assay: Protection against fragile X syndrome phenotypes in Fmr1 null mutant Drosophila Fmr1'3/TM6C assessed as embryo viability at 40 uM at 25 degC by flow cytometry relative to untreated homozygous embryos; format: functional
# Drosophila [2] = assay: Protection against fragile X syndrome phenotypes in laboratory prepared food feeded Fmr1 null mutant Drosophila Fmr1'3/TM6C assessed as homozygous Fmr1-/- embryo viability at 10 uM at 25 degC by flow cytometry relative to untreated homozygous embryos fed with only laboratory prepared food; format: functional
# Drosophila [3] = assay: Cytoprotection against glutamate-induced toxicity in laboratory prepared food feeded Fmr1 null mutant Drosophila Fmr1'3/TM6C fragile X syndrome model assessed as embryo viability at 80 uM by flow cytometry relative to untreated embryos; format: functional, organism-based
# Drosophila [4] = assay: Suppression of glutamate-induced beta-lobe midline crossing deffect in mushroom bodies of laboratory prepared food feeded Fmr1 null mutant Drosophila Fmr1'3/TM6C fragile X syndrome model at 80 uM by Fas2 staining based confocal microscopy; format: functional, organism-based
# Drosophila [5] = assay: Suppression of glutamate-induced courtship behavior deffect in laboratory prepared food feeded male Fmr1 null mutant Drosophila Fmr1'3/TM6C fragile X syndrome model assessed as courtship behavior towards female flies at 80 uM for 10 mins by courtship index assay; format: functional, organism-based
# Drosophila [6] = assay: Cytoprotection against glutamate-induced toxicity in laboratory prepared food feeded Fmr1 null mutant Drosophila Fmr1'3/TM6C fragile X syndrome model assessed as embryo viability at 40 uM by flow cytometry relative to untreated embryos; format: functional, organism-based
# Drosophila [7] = assay: Protection against fragile X syndrome phenotypes in laboratory prepared food feeded Fmr1 null mutant Drosophila Fmr1'3/TM6C assessed as homozygous Fmr1-/- embryo viability at 40 uM at 25 degC by flow cytometry relative to untreated homozygous embryos fed with only laboratory prepared food; format: functional
# Drosophila [8] = assay: Suppression of Futsch protein overexpression in head lysates of laboratory prepared food feeded Fmr1 null mutant Drosophila Fmr1'3/TM6C fragile X syndrome model at 40 uM by Western blot; format: functional, organism-based
# Drosophila [9] = assay: Cytoprotection against glutamate-induced toxicity in laboratory prepared food feeded Fmr1 null mutant Drosophila Fmr1'3/TM6C fragile X syndrome model assessed as embryo viability at 40 uM in presence of 40 uM GABAB receptor antagonist CGP-54626 by flow cytometry relative to untreated embryos; format: functional, organism-based
# Drosophila [10] = assay: Protection against fragile X syndrome phenotypes in laboratory prepared food feeded Fmr1 null mutant Drosophila Fmr1'3/TM6C assessed as homozygous Fmr1-/- embryo viability at 5 uM at 25 degC by flow cytometry relative to untreated homozygous embryos fed with only laboratory prepared food; format: functional
# Drosophila [11] = assay: Suppression of beta-lobe midline crossing deffect in mushroom bodies of laboratory prepared food feeded Fmr1 null mutant Drosophila Fmr1'3/TM6C fragile X syndrome model at by Fas2 staining based confocal microscopy; format: functional
# Drosophila [12] = assay: Protection against fragile X syndrome phenotypes in laboratory prepared food feeded Fmr1 null mutant Drosophila Fmr1'3/TM6C assessed as homozygous Fmr1-/- embryo viability at 20 uM at 25 degC by flow cytometry relative to untreated homozygous embryos fed with only laboratory prepared food; format: functional
# Drosophila [13] = assay: Cytoprotection against glutamate-induced toxicity in laboratory prepared food feeded Fmr1 null mutant Drosophila Fmr1'3/TM6C fragile X syndrome model assessed as genetic segregation ratio at 40 uM by flow cytometry relative to untreated embryos; format: functional
# Drosophila [14] = assay: Cytoprotection against glutamate-induced toxicity in laboratory prepared food feeded Fmr1 null mutant Drosophila Fmr1'3/TM6C fragile X syndrome model assessed as embryo viability at 40 uM in presence of GABAB receptor antagonist CGP-54626 by flow cytometry relative to untreated embryos; format: functional
# Drosophila [15] = assay: Suppression of glutamate-induced Futsch protein overexpression in head lysates of laboratory prepared food feeded Fmr1 null mutant Drosophila Fmr1'3/TM6C fragile X syndrome model at 40 uM by Western blot; format: functional, organism-based
# Drosophila [16] = assay: Suppression of glutamate-induced beta-lobe midline crossing deffect in mushroom bodies of laboratory prepared food feeded Fmr1 null mutant Drosophila Fmr1'3/TM6C fragile X syndrome model at 40 uM by Fas2 staining based confocal microscopy; format: functional
# Drosophila [17] = assay: Suppression of glutamate-induced beta-lobe midline crossing deffect in mushroom bodies of laboratory prepared food feeded Fmr1 null mutant Drosophila Fmr1'3/TM6C fragile X syndrome model assessed as incidence of severe deffects at 40 uM by Fas2 staining based confocal microscopy; format: functional
# Drosophila [18] = assay: Suppression of glutamate-induced courtship behavior deffect in laboratory prepared food feeded male Fmr1 null mutant Drosophila Fmr1'3/TM6C fragile X syndrome model assessed as courtship behavior towards female flies at 40 uM for 10 mins by courtship index assay; format: functional, organism-based
# Drosophila [19] = assay: Suppression of Futsch protein overexpression in head lysates of laboratory prepared food feeded Fmr1 null mutant Drosophila Fmr1'3/TM6C fragile X syndrome model at 40 uM in presence of Scopolamine by Western blot; format: functional, organism-based
compound,measurement,setting,value
Cl.Cl.NNCc1cccc(O)c1,Activity,Drosophila [1],67%
Cc1cccc(C#Cc2ccccc2)n1,Activity,Drosophila [2],61.6%
same,Activity,Drosophila [3],Active
same,Activity,Drosophila [4],Active
same,Activity,Drosophila [5],Active
C[C@H](NC[C@H](O)CP(=O)(O)CC1CCCCC1)c1ccc(Cl)c(Cl)c1,Activity,Drosophila [6],inactive
CC(=O)N[C@@H](CS)C(=O)O [ACETYLCYSTEINE],Activity,Drosophila [1],67%
CN1[C@@H]2CC[C@H]1C[C@@H](OC(c1ccccc1)c1ccccc1N)C2 (stereo not given in full) [AMINOBENZTROPINE],Activity,Drosophila [1],25%
same,Activity,Drosophila [7],66.38%
same,Activity,Drosophila [8],Active
same,Activity,Drosophila [9],Active
Cc1cc(O)cc(C)c1Cl [CHLOROXYLENOL],Activity,Drosophila [1],42%
CCN(CC)CCOc1ccc(C(=C(Cl)c2ccccc2)c2ccccc2)cc1 [CLOMIPHENE],Activity,Drosophila [1],25%
same,Activity,Drosophila [10],54.96%
CN1CC(=O)NC1=N [CREATININE],Activity,Drosophila [1],58%
same,Activity,Drosophila [7],123.2%
same,Activity,Drosophila [8],Active
same,Activity,Drosophila [11],69%
C/C=C(/C(=C/C)c1ccc(O)cc1)c1ccc(O)cc1 [DIENESTROL],Activity,Drosophila [1],33%
same,Activity,Drosophila [7],71.3%
Cl.NCCc1ccc(O)c(O)c1 [DOPAMINE HYDROCHLORIDE],Activity,Drosophila [1],25%
C[C@@H](CO)NC(=O)[C@@H]1C=C2c3cccc4[nH]cc(c34)C[C@H]2N(C)C1.O=C(O)/C=C\C(=O)O [ERGONOVINE MALEATE],Activity,Drosophila [1],33%
same,Activity,Drosophila [12],69.85%
NCCCC(=O)O [GAMMA-AMINOBUTYRIC ACID],Activity,Drosophila [1],25%
same,Activity,Drosophila [7],83.1%
same,Activity,Drosophila [13],33%
same,Activity,Drosophila [6],Active
same,Activity,Drosophila [14],8%
same,Activity,Drosophila [15],Active
same,Activity,Drosophila [16],70%
same,Activity,Drosophila [17],7%
same,Activity,Drosophila [18],Active
O=c1cc(CO)occ1O [KOJIC ACID],Activity,Drosophila [1],25%
same,Activity,Drosophila [2],73.06%
O=C(O)C1CCCNC1 (stereo not given) [NIPECOTIC ACID],Activity,Drosophila [1],58%
same,Activity,Drosophila [7],84.2%
same,Activity,Drosophila [8],Active
same,Activity,Drosophila [11],69%
Cl.NCC(=O)c1ccccc1 [PHENACYLAMINE HYDROCHLORIDE],Activity,Drosophila [1],25%
CC[C@@H]1C(=O)OC[C@@H]1Cc1cncn1C.O=[N+]([O-])O [PILOCARPINE NITRATE],Activity,Drosophila [1],33%
same,Activity,Drosophila [10],68.5%
same,Activity,Drosophila [8],Active
same,Activity,Drosophila [19],inactive
same,Activity,Drosophila [11],69%
COC(=O)[C@H]1[C@H]2C[C@@H]3c4[nH]c5cc(OC)ccc5c4CCN3C[C@H]2C[C@@H](OC(=O)c2cc(OC)c(OC)c(OC)c2)[C@@H]1OC [RESERPINE],Activity,Drosophila [1],25%
